# In patent US12559529B2, “NPY2 receptor agonists” (Boehringer Ingelheim International GmbH, priority 2019, dated 2026):
# *1 amine or outer side, *2 acyl side, *3 side chain or, on linkers, in order; H or OH if unused. Where a SMILES comes first, the peptide text is derived from it. Side-chain parts run from the residue outwards. The star is where a group is joined. C18 diacid = O=C(O)CCCCCCCCCCCCCCCCC(=O)*; γGlu = O=C(O)[C@H](CCC(=O)[*:2])N[*:1]; Isovaleryl = CC(C)CC(=O)*; AEEA = NCCOCCOCC(=O)O
# Target: T1, Human Neuropeptide Y2 Receptor (Homo sapiens, UniProt P49146)
# T1 construct: purchased CHEMICON HTS066M
# T1 sequence (P49146 1-381): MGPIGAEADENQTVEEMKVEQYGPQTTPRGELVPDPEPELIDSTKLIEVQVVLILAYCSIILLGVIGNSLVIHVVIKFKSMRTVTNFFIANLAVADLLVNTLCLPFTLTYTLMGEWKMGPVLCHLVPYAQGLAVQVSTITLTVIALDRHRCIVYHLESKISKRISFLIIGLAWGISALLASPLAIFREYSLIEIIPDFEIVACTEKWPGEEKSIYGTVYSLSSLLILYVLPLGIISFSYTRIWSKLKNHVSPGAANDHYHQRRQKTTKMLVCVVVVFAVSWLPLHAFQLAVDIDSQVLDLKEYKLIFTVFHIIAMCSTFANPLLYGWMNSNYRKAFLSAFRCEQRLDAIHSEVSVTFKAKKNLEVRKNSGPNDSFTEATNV
# Experiment: Radioligand binding competition assay (RLB)
# Settings: Table 3; human 125I-PYY (1-36) 0.02 nM, Y2 receptor membranes; read-out: Ki
# How it was run: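 Peptide dilutions made in pH 7.4 HEPES assay buffer with 0.2% ovalbumin; human Y2 receptor membranes added at 0.5 μg protein/well; plates shaken 2 h at room temperature; reaction stopped by vacuum filtration onto PEI-treated GF/C filters with ice-cold high-salt washes; radioactivity counted by scintillation.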
row,Ki,Compound
1,6.96 nM,"CC(C)CC(=O)N[C@@H](C)C(=O)N1CCC[C@H]1C(=O)N[C@@H](CCC(=O)O)C(=O)N[C@@H](CCCCNC(=O)COCCOCCNC(=O)COCCOCCNC(=O)CC[C@H](NC(=O)CCCCCCCCCCCCCCCCC(=O)O)C(=O)O)C(=O)N1CCC[C@H]1C(=O)N[C@@H](CCC(=O)O)C(=O)N[C@@H](CCC(=O)O)C(=O)N[C@@H](CCC(=O)O)C(=O)N[C@@H](C)C(=O)N[C@@H](CO)C(=O)N1CCC[C@H]1C(=O)N[C@@H](CCC(=O)O)C(=O)N[C@@H](CCC(=O)O)C(=O)N[C@H](C(=O)N[C@@H](CCC(N)=O)C(=O)N[C@@H](CCCNC(=N)N)C(=O)N[C@@H](Cc1ccc(O)cc1)C(=O)N[C@@H](Cc1ccc(O)cc1)C(=O)N[C@H](C(=O)N[C@@H](CO)C(=O)N[C@@H](CC(C)C)C(=O)N[C@@H](CCCNC(=N)N)C(=O)N[C@@H](Cc1c[nH]cn1)C(=O)N[C@@H](Cc1ccc(O)cc1)C(=O)N[C@@H](Cc1ccc(O)cc1)C(=O)N[C@@H](CC(N)=O)C(=O)N[C@@H](Cc1c[nH]c2ccccc12)C(=O)N[C@@H](CC(C)C)C(=O)N[C@H](C(=O)N[C@@H](CCCNC(=N)N)C(=O)N[C@@H](CCC(N)=O)C(=O)N[C@@H](CCCNC(=N)N)C(=O)N[C@@H](Cc1ccc(O)cc1)C(N)=O)[C@@H](C)O)C(C)C)[C@@H](C)O [Compound 80, N{alpha-4}-(3-methylbutanoyl)-N{epsilon-7}-[2-(2-{2-[2-(2-{2-[(4S)-4-carboxy-4-(17-carboxyheptadecanamido)butanamido]ethoxy}ethoxy)acetamido]ethoxy}ethoxy)acetamido]-[4A,7K,9E,11E,17T,18Q,22V,28Y,30W,31L]hPYY (4-36)]"
2,1.56 nM,"CC(C)CC(=O)N[C@@H](C)C(=O)N1CCC[C@H]1C(=O)N[C@@H](CCC(=O)O)C(=O)N[C@@H](CCCCNC(=O)COCCOCCNC(=O)COCCOCCNC(=O)CC[C@H](NC(=O)CCCCCCCCCCCCCCCCC(=O)O)C(=O)O)C(=O)N1CCC[C@H]1C(=O)N[C@@H](CCC(=O)O)C(=O)N[C@@H](CCC(=O)O)C(=O)N[C@@H](CC(=O)O)C(=O)N[C@@H](C)C(=O)N[C@@H](CO)C(=O)N1CCC[C@H]1C(=O)N[C@@H](CCC(=O)O)C(=O)N[C@@H](CCC(=O)O)C(=O)N[C@@H](CC(C)C)C(=O)N[C@@H](CCC(N)=O)C(=O)N[C@@H](CCCNC(=N)N)C(=O)N[C@@H](Cc1ccc(O)cc1)C(=O)N[C@@H](C)C(=O)N[C@H](C(=O)N[C@@H](CO)C(=O)N[C@@H](CC(C)C)C(=O)N[C@@H](CCCNC(=N)N)C(=O)N[C@@H](Cc1c[nH]cn1)C(=O)N[C@@H](Cc1ccc(O)cc1)C(=O)N[C@@H](Cc1ccc(O)cc1)C(=O)N[C@@H](CC(N)=O)C(=O)N[C@@H](Cc1c[nH]c2ccccc12)C(=O)N[C@@H](CC(C)C)C(=O)N[C@H](C(=O)N[C@@H](CCCNC(=N)N)C(=O)N[C@@H](CCC(N)=O)C(=O)N[C@@H](CCCNC(=N)N)C(=O)N[C@@H](Cc1ccc(O)cc1)C(N)=O)[C@@H](C)O)C(C)C [Compound 85, N{alpha-4}-(3-methylbutanoyl)-N{epsilon-7}-[2-(2-{2-[2-(2-{2-[(4S)-4-carboxy-4-(17-carboxyheptadecanamido)butanamido]ethoxy}ethoxy)acetamido]ethoxy}ethoxy)acetamido]-[4A,7K,9E,18Q,21A,22V,28Y,30W,31L]hPYY (4-36)]"
3,1.19 nM,"CC(C)CC(=O)N[C@@H](C)C(=O)N1CCC[C@H]1C(=O)N[C@@H](CCC(=O)O)C(=O)N[C@@H](CCCCNC(=O)COCCOCCNC(=O)COCCOCCNC(=O)CC[C@H](NC(=O)CCCCCCCCCCCCCCCCC(=O)O)C(=O)O)C(=O)N1CCC[C@H]1C(=O)N[C@@H](CCC(=O)O)C(=O)N[C@@H](C)C(=O)N[C@@H](CC(=O)O)C(=O)N[C@@H](C)C(=O)N[C@@H](CO)C(=O)N1CCC[C@H]1C(=O)N[C@@H](CCC(=O)O)C(=O)N[C@@H](CCC(=O)O)C(=O)N[C@@H](CC(C)C)C(=O)N[C@@H](CCC(N)=O)C(=O)N[C@@H](CCCNC(=N)N)C(=O)N[C@@H](Cc1ccc(O)cc1)C(=O)N[C@@H](CCC(=O)O)C(=O)N[C@H](C(=O)N[C@@H](CO)C(=O)N[C@@H](CC(C)C)C(=O)N[C@@H](CCCNC(=N)N)C(=O)N[C@@H](Cc1c[nH]cn1)C(=O)N[C@@H](Cc1ccc(O)cc1)C(=O)N[C@@H](Cc1ccc(O)cc1)C(=O)N[C@@H](CC(N)=O)C(=O)N[C@@H](Cc1c[nH]c2ccccc12)C(=O)N[C@@H](CC(C)C)C(=O)N[C@H](C(=O)N[C@@H](CCCNC(=N)N)C(=O)N[C@@H](CCC(N)=O)C(=O)N[C@@H](CCCNC(=N)N)C(=O)N[C@@H](Cc1ccc(O)cc1)C(N)=O)[C@@H](C)O)C(C)C [Compound 86, N{alpha-4}-(3-methylbutanoyl)-N{epsilon-7}-[2-(2-{2-[2-(2-{2-[(4S)-4-carboxy-4-(17-carboxyheptadecanamido)butanamido]ethoxy}ethoxy)acetamido]ethoxy}ethoxy)acetamido]-[4A,7K,9E,10A,18Q,21E,22V,28Y,30W,31L]hPYY (4-36)] (Isovaleryl-APEK([AEEA-AEEA-γGlu-C18 diacid])PEADASPEELQRYEVSLRHYYNWLTRQRY-NH2)"
4,1.97 nM,"CC(C)CC(=O)N[C@@H](C)C(=O)N1CCC[C@H]1C(=O)N[C@@H](CCC(=O)O)C(=O)N[C@@H](CCCCNC(=O)COCCOCCNC(=O)COCCOCCNC(=O)CC[C@H](NC(=O)CCCCCCCCCCCCCCCCC(=O)O)C(=O)O)C(=O)N1CCC[C@H]1C(=O)N[C@@H](CCC(=O)O)C(=O)N[C@@H](CCC(=O)O)C(=O)N[C@@H](CC(=O)O)C(=O)N[C@@H](CO)C(=O)N[C@@H](CO)C(=O)N1CCC[C@H]1C(=O)N[C@@H](C)C(=O)N[C@@H](CCC(=O)O)C(=O)N[C@@H](CC(C)C)C(=O)N[C@@H](CCC(N)=O)C(=O)N[C@@H](CCCNC(=N)N)C(=O)N[C@@H](Cc1ccc(O)cc1)C(=O)N[C@@H](Cc1ccc(O)cc1)C(=O)N[C@H](C(=O)N[C@@H](CO)C(=O)N[C@@H](CC(C)C)C(=O)N[C@@H](CCCNC(=N)N)C(=O)N[C@@H](Cc1c[nH]cn1)C(=O)N[C@@H](Cc1ccc(O)cc1)C(=O)N[C@@H](Cc1ccc(O)cc1)C(=O)N[C@@H](CC(N)=O)C(=O)N[C@@H](Cc1c[nH]c2ccccc12)C(=O)N[C@@H](CC(C)C)C(=O)N[C@H](C(=O)N[C@@H](CCCNC(=N)N)C(=O)N[C@@H](CCC(N)=O)C(=O)N[C@@H](CCCNC(=N)N)C(=O)N[C@@H](Cc1ccc(O)cc1)C(N)=O)[C@@H](C)O)C(C)C [Compound 87, N{alpha-4}-(3-methylbutanoyl)-N{epsilon-7}-[2-(2-{2-[2-(2-{2-[(4S)-4-carboxy-4-(17-carboxyheptadecanamido)butanamido]ethoxy}ethoxy)acetamido]ethoxy}ethoxy)acetamido]-[4A,7K,9E,12S,15A,18Q,22V,28Y,30W,31L]hPYY (4-36)] (Isovaleryl-APEK([AEEA-AEEA-γGlu-C18 diacid])PEEDSSPAELQRYYVSLRHYYNWLTRQRY-NH2)"
